# Experimental data taken from patent US20040170622A1, “Methods and compositions for modulating XBP-1 activity” (President and Fellows of Harvard College, priority 2002, published 2004).
# “Also recorded” adds a separate entry of the source. Where a SMILES comes first, the peptide text is derived from it. The star is where a group is joined. Cbz = O=C(OCc1ccccc1)*
# B1: dn-XBP: dominant negative XBP-1 containing the N-terminal 188 aa, lacking transactivation domain, retaining leucine zipper (protein)
# chain: MVVVAAAPSAATAAPKVLLLSGQPASGGRALPLMVPGPRAAGSEASGTPQARKRQRLTHLSPEEKALRRKLKNRVAAQTARDRKKARMSELEQQVVDLEEENHKLQLENQLLREKTHGLVVENQELRTRLGMDTLDPDEVPEVEAKGSGVRLVAGSAESAAGAGPVVTSPEHLPMDSDTVASSDSESD
# B2: XBP-1s: vector encoding only the spliced form of murine XBP-1, a protein of 371 aa (protein)
# chain: MVVVAAAPSAATAAPKVLLLSGQPASGGRALPLMVPGPRAAGSEASGTPQARKRQRLTHLSPEEKALRRKLKNRVAAQTARDRKKARMSELEQQVVDLEEENHKLQLENQLLREKTHGLVVENQELRTRLGMDTLDPDEVPEVEAKGSGVRLVAGSAESAAGAGPVVTSPEHLPMDSDTVASSDSESDILLGILDKLDPVMFFKCPSPESASLEELPEVYPEGPSSLPASLSLSVGTSSAKLEAINELIRFDHVYTKPLVLEIPSETESQTNVVVKIEEAPLSSSEEDHPEFIVSVKKEPLEDDFIPELGISNLLSSSHCLRPPSCLLDAHSDCGYEGSPSPFSDMSSPLGTDHSWEDTFANELFPQLISV
# What was measured:
# Assay type in all cases: cell-based
# [1] = tested on: IRE1α-mediated XBP-1 mRNA splicing; assay: XBP-1 mRNA level and splicing in J558 cells (Northern blot, RT-PCR); conditions: for XBP-1 mRNA splicing, agent alone (RT-PCR) / overall levels of XBP-1 RNA (Northern blot): J558 cells
# Procedure: (§1) (A) XBP-1 mRNA levels in ER stressed J558 cells treated with Tm for 4 hrs in the absence or presence of MG-132. Cells were pretreated with MG-132 for 1 hr before adding Tm. XBP-1 mRNA levels were determined by Northern blot analysis. […] (C) Effect of a panel of PIs on XBP-1 splicing. Cells were treated with Tm for 4 hrs in the absence or presence of MG-132 (10 μM), PS-341 (10 μM), Lactacystin (10 μM), ZL3VS (50 μM) or AdaAhxL3VS (50 μM), and XBP-1 mRNA splicing measured by RT-PCR analysis. (D) IRE-1α phosphorylation in NIH3T3 cells were treated with Tm as indicated after 2 hrs of pretreatment with MG-132 (10 μM).
# Total RNA was prepared by using Trizol reagent, electrophoresed on 1.2% agarose, 6% formaldehyde gels and then transferred onto Genescreen Plus membrane, (NEN, Boston, Mass.). […] Probes for ERdj4 and p58^IPK were generated from cDNA excised from EST clones (ATCC, Manassas, Va.) using appropriate restriction enzymes (ERdj4, IMAGE: 1920927; p58^IPK, IMAGE:2646147).
# IRE1α = IRE1α phosphorylation in NIH3T3 cells (Western blot)
# Procedure: as §1
# Cells were lysed in RIPA buffer (50 mM Tris pH 7.4, 150 mM NaCl, 1 mM EDTA, 1% Triton X-100, 1% sodium deoxycholate, 0.1% SDS) and lysates subjected to SDS-PAGE and transferred to Hybond P membrane (Amersham-Pharmacia, Piscataway, N.J.). […] HeLa cells were cotransfected with XBP-1u and His-tagged ubiquitin expression plasmids (pMT 107, D. Bohmann, EMBL, Germany) by using the Lipofectamine-2000 reagent (Invitrogen, Carlsbad, Calif.). […] Degradation rates of XBP-1u and XBP-1s proteins were determined by pulse labeling J558 cells with ^35S Met/Cys for 1 hr and chasing for the indicated times.
# PERK = PERK autophosphorylation in J558 cells
# XBP-1s = assay: UPRE-luciferase reporter in NIH3T3 cells
# Procedure: (A) Ubiquitination of XBP-1 in HeLa cells were cotransfected with XBP-1u and His-tagged ubiquitin expression plasmids. (B) Degradation rates of XBP-1u and XBP-1s proteins were determined by pulse labeling J558 cells with ^35S Met/Cys for 1 hr and chasing for the indicated times. (C) Effect of XBP-1u on XBP-1s dependent UPRE activation in PI-treated NIH3T3 cells with 8-fold excess of XBP-1u plasmids. Transfected cells were treated with MG-132 for 16 hrs before harvesting for luciferase assays. Values represent fold induction of activity compared to the reporter alone after normalizing to Renilla. (D) Generation and expression of lysine to arginine XBP-1u mutants. Two or three lysine residues in the C-terminus of XBP-1u were replaced by arginine to generate XBP-1uKK (235, 252) and XBP-1uKKK(146, 235, 252) by site-directed mutagenesis. dn-XBP contains the N-terminal 188 aa of XBP-1u. Western blot analysis was performed with NIH3T3 extracts transfected with the indicated plasmids. E) Inhibition of XBP-1 dependent activation of the UPRE reporter in NIH 3T3 cells by XBP-1u lysine to arginine mutants.
# Two or three lysine residues in the C-terminus of XBP-1u were replaced by arginines to generate XBP-1uKK (K235R, K252R) and XBP-1uKKK(K146R, K235R, K252R) by site-directed mutagenesis (Iwakoshi et al.2003 Nature Immunology 4: 321-329). dn-XBP contains the N-terminal 188 aa of XBP-1u. NTH3T3 cells were transfected by using the Lipofectamine2000 reagent as recommended by the manufacturer (Invitrogen, Carlsbad, Calif.) with indicated amount of UPRE (UPR element) reporter (Wang et al. 2000 J Biol Chem 275: 27013-27020) and various effector plasmids. Cells were treated for 16 hours before harvest in certain experiments. Cells were lysed in passive lysis buffer for dual luciferase assays according to the manufacturer's protocol (Promega, Madison, Wis.).
molecule,measurement,setting,value
tunicamycin [Tm],"XBP-1 mRNA splicing, agent alone (RT-PCR)",[1],markedly induced XBP-1 mRNA splicing
same,overall levels of XBP-1 RNA (Northern blot),[1],not significantly altered
same,IRE1α phosphorylation,IRE1α; Tm-treated vs untreated cells,increase in the phosphorylated (slower mobility) and decrease in unphosphorylated IRE1α species
same,amount of phosphorylated PERK,PERK,led to an increase in the amount of phosphorylated PERK
CC(C)C[C@@H](C=O)NC(=O)[C@H](CC(C)C)NC(=O)[C@H](CC(C)C)NC(=O)OCc1ccccc1 [MG-132] (Cbz-Leu-Leu-Leu-aldehyde),effect on Tm-induced XBP-1 mRNA splicing,"[1]; J558, Tm 4 hrs, MG-132 10 μM, PS-341 10 μM, ZL3VS 50 μM, AdaAhxL3VS 50 μM",suppressed by MG-132 in a dose dependent manner
same,"XBP-1 mRNA splicing, agent alone (RT-PCR)",[1],did not induce any XBP-1mRNA splicing
same,overall levels of XBP-1 RNA (Northern blot),[1],not significantly altered
same,effect on Tm-induced IRE1α phosphorylation,IRE1α; 2 hrs pretreatment with MG-132 10 μM,completely blocked the phosphorylation of IRE1α by Tm
same,effect on Tm-induced autophosphorylation of PERK,PERK,a decrease in the autophosphorylation of PERK; also recorded: very marked decrease in the autophosphorylation of PERK
B1,effect on transactivation of UPRE reporter by XBP-1s,XBP-1s; in the absence of PIs,inhibits XBP-1s -induced transactivation very efficiently
B2,UPRE reporter activity,XBP-1s; in the absence of treatment,greatly increased reporter activity
